Measurements from patent US8394969B2, “Cyclic benzimidazole derivatives useful as anti-diabetic agents” (Merck Sharp & Dohme Corp., priority 2008, dated 2013).
Where a name gives a salt, the structure may show the parent alone. Read-outs that look alike come from different tables or passages of the source.

Target: recombinant human AMPK complex 1 (containing α1β1γ1) (Homo sapiens, UniProt Q13131+Q9Y478)
Assay: […] (in vitro AMPK activation assay)
Format: biochemical
Settings: basal activity subtracted
[1] = recombinant human AMPK complex 1 (α1β1γ1), read-out: % Maximum AMP Activation of human AMPK Complex 1
[2] = read-out: % Maximum AMP Activation of human AMPK Complex 1, recombinant human AMPK complex 1 (α1β1γ1)

Sequence of recombinant human AMPK complex 1 (containing α1β1γ1) (Q13131 whole entry): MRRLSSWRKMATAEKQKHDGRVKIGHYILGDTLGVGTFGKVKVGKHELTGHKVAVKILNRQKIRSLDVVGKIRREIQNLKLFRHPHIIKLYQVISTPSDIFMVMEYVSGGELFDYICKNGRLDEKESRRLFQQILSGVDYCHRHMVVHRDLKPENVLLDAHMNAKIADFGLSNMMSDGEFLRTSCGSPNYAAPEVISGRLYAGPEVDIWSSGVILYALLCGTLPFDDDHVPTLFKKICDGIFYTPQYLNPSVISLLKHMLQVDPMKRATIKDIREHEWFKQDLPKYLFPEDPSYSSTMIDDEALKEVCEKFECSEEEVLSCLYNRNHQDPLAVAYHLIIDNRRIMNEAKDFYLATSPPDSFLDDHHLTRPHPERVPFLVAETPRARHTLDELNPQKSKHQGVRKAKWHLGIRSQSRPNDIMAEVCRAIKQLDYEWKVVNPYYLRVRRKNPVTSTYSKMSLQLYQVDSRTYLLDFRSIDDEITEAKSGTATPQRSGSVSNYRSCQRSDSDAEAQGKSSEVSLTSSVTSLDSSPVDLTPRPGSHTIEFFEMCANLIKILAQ
Sequence of recombinant human AMPK complex 1 (containing α1β1γ1) (Q9Y478 whole entry): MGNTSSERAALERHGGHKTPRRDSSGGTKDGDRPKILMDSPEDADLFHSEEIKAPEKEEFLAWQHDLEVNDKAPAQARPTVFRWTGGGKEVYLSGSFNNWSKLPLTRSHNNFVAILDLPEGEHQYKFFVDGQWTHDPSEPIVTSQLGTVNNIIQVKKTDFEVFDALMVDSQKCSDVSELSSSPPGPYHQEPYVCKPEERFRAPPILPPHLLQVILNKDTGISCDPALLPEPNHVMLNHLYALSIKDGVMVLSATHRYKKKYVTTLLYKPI
Sequence of recombinant human AMPK complex 1 (containing α1β1γ1) (P54619 whole entry partner): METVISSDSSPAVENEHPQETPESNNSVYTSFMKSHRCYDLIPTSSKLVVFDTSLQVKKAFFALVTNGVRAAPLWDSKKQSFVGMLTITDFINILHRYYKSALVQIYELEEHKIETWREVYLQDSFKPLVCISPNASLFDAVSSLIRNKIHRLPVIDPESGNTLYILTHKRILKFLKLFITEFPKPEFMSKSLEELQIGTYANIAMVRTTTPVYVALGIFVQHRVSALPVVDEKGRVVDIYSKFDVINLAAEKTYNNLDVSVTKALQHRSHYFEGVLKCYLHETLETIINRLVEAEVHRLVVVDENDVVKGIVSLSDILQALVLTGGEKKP

For `COc1ccc(C#Cc2cc3nc(Oc4ccc(C)c(C(=O)O)c4)[nH]c3cc2Cl)cn1` [Example 129, 5-[6-Chloro-5-(6-methoxy-pyridin-3-ylethynyl)-1H-benzoimidazol-2-yloxy]-2-methyl-benzoic acid], the Emax [1] was over 80%.

In the case of `Cc1ccc(Oc2nc3cc(-c4ccc(C5CCCC5)cc4)c(Cl)cc3[nH]2)cc1C(=O)O` [Example 258, 2-(3-carboxy-4-methylphenoxy)-6-chloro-5-(4-cyclopentylphenyl)-1H-3,1-benzimidazol-3-ium trifluoroacetate], the Emax [1] is reported as over 80%.

Work on `Cc1ccc(Oc2nc3cc(-c4ccc(C5(O)CC5)cc4)c(Cl)cc3[nH]2)cc1C(=O)O` [Example 264, 5-{6-Chloro-5-[4-(1-hydroxy-cyclopropyl)-phenyl]-1H-benzoimidazol-2-yloxy}-2-methyl-benzoic acid] yielded an Emax [1] of over 80%.

Work on `Cc1ccc(Oc2nc3cc(-c4sc(-c5ccccc5)nc4C)c(Cl)cc3[nH]2)cc1C(=O)O` [Example 361, 5-[6-chloro-5-(4-methyl-2-phenyl-thiazol-5-yl)-1H-benzoimidazol-2-yloxy]-2-methyl-benzoic acid] yielded an Emax [1] of over 80%.

With `COc1ccc2cc(C#Cc3cc4nc(Oc5ccc(C)c(C(=O)O)c5)[nH]c4cc3Cl)ccc2c1` [Example 94, 5-[6-Chloro-5-(6-methoxy-naphthalen-2-ylethynyl)-1H-benzoimidazol-2-yloxy]-2-methyl-benzoic acid] the Emax [1] was over 80%.

Work on `Cc1ccc(Oc2nc3cc(-c4ccc(C(C)C)c5[nH]ccc45)c(Cl)cc3[nH]2)cc1C(=O)O` [Example 273, 5-[6-Chloro-5-(7-isopropyl-1H-indol-4-yl)-1H-benzoimidazol-2-yloxy]-2-methyl-benzoic acid] yielded an Emax [1] of over 80%.

Compound `Cc1cc(Oc2nc3cc(-c4ccc(-c5ccccc5)cc4)c(Cl)cc3[nH]2)cc(C(=O)O)c1C` [Example 11, 5-(5-Biphenyl-4-yl-6-chloro-1H-benzoimidazol-2-yloxy)-2,3-dimethyl-benzoic acid] has an Emax [1] of over 80%.

`Cc1ccc(Oc2nc3cc(C#Cc4ccc(-c5nc6ccccc6o5)cc4)c(Cl)cc3[nH]2)cc1C(=O)O` [Example 81, 5-[5-(4-Benzooxazol-2-yl-phenylethynyl)-6-chloro-1H-benzoimidazol-2-yloxy]-2-methyl-benzoic acid] gave an Emax [1] of over 80%.

`COC(=O)c1ccc(C#Cc2cc3nc(Oc4ccc(C)c(C(=O)O)c4)[nH]c3cc2Cl)cc1` [Example 91, 5-[6-Chloro-5-(4-methoxycarbonyl-phenylethynyl)-1H-benzoimidazol-2-yloxy]-2-methyl-benzoic acid] showed an Emax [1] of over 80%.

Work on `NC(=O)Nc1cccc(Oc2nc3cc(-c4ccc(-c5ccccc5)cc4)c(Cl)cc3[nH]2)c1` [Example 2, [3-(5-Biphenyl-4-yl-6-chloro-1H-benzoimidazol-2-yloxy)-phenyl]-urea] yielded an Emax [1] of over 80%.

Work on `Cc1ccc(Oc2nc3cc(-c4ccc5cnccc5c4)c(Cl)cc3[nH]2)cc1C(=O)O` [Example 280, 5-(6-Chloro-5-isoquinolin-6-yl-1H-benzoimidazol-2-yloxy)-2-methyl-benzoic acid] yielded an Emax [1] of over 80%.

Work on `Cc1ccc(Oc2nc3cc(-c4ccc5c(c4)CCN5C(C)C)c(Cl)cc3[nH]2)cc1C(=O)O` [Example 279, 5-[6-Chloro-5-(1-isopropyl-2,3-dihydro-1H-indol-5-yl)-1H-benzoimidazol-2-yloxy]-2-methyl-benzoic acid] yielded an Emax [1] of over 80%.

`COC(=O)c1cc(Oc2nc3cc(C#Cc4cccc(O)c4)c(Cl)cc3[nH]2)ccc1C` [Example 125, 5-[6-Chloro-5-(3-hydroxy-phenylethynyl)-1H-benzoimidazol-2-yloxy]-2-methyl-benzoic acid methyl ester] showed an Emax [1] of over 80%.

Work on `Cc1ccc(Oc2nc3cc(CCc4ccccc4)c(Cl)cc3[nH]2)cc1C(=O)O` [Example 51, 5-(6-Chloro-5-phenethyl-1H-benzoimidazol-2-yloxy)-2-methyl-benzoic acid] yielded an Emax [1] of over 80%.

With `Cc1ccc(Oc2nc3cc(-c4ccc(-c5c(C)noc5C)cc4)c(Cl)cc3[nH]2)cc1C(=O)O` [Example 204, 5-({6-chloro-5-[4-(3,5-dimethylisoxazol-4-yl)phenyl]-1H-benzimidazol-2-yl}oxy)-2-methylbenzoic acid] the Emax [1] was over 80%.

With `COc1ccc2cc(-c3cc4nc(Oc5ccc(Cl)c(C(=O)O)c5)[nH]c4cc3Cl)ccc2c1` [Example 309, 2-Chloro-5-[6-chloro-5-(6-methoxy-naphthalen-2-yl)-1H-benzoimidazol-2-yloxy]-benzoic acid] the Emax [1] was over 80%.

With `Cc1ccc(Oc2nc3cc(C#Cc4ccccc4Cl)c(Cl)cc3[nH]2)cc1C(=O)O` [Example 115, 5-[6-Chloro-5-(2-chloro-phenylethynyl)-1H-benzoimidazol-2-yloxy]-2-methyl-benzoic acid] the Emax [1] was over 80%.

Compound `COc1cc(-c2cc3nc(Oc4ccc(C)c(C(=O)O)c4)[nH]c3cc2Cl)ccc1O` [Example 255, 2-(3-carboxy-4-methylphenoxy)-6-chloro-5-(4-hydroxy-3-methoxyphenyl)-1H-3,1-benzimidazol-3-ium trifluoroacetate] has an Emax [1] of over 80%.

Work on `COC(=O)c1cc(Oc2nc3cc(C#Cc4ccccc4OC)c(Cl)cc3[nH]2)ccc1C` [Example 107, 5-[6-Chloro-5-(2-methoxy-phenylethynyl)-1H-benzoimidazol-2-yloxy]-2-methyl-ester] yielded an Emax [1] of over 80%.

`Cc1ccc(Oc2nc3cc(-c4ccc(C(C)C)c5c4CCN5C)c(Cl)cc3[nH]2)cc1C(=O)O` [Example 268, 5-[6-Chloro-5-(7-isopropyl-1-methyl-2,3-dihydro-1H-indol-4-yl)-1H-benzoimidazol-2-yloxy]-2-methyl-benzoic acid] was tested, and the Emax [1] was over 80%.

`O=C(O)c1cccc(Oc2nc3cc(-c4ccc(-c5ccccc5)cc4)c(Cl)cc3[nH]2)c1` [Example 56, 3-(5-biphenyl-4-yl-6-chloro-1H-benzo-imidazol-2-yloxy)-benzoic acid, ammonium salt] showed an Emax [2] of over 80%.

With `COc1cc(C(=O)O)ccc1C#Cc1cc2nc(Oc3ccc(C)c(C(=O)O)c3)[nH]c2cc1Cl` [Example 127, 5-({5-[(4-carboxy-2-methoxyphenyl)ethynyl]-6-chloro-1H benzimidazol-2-yl}oxy)-2-methylbenzoic acid] the Emax [1] was over 80%.

With `Cc1ccc(Oc2nc3cc(-c4ccc5c(cnn5C)c4)c(Cl)cc3[nH]2)cc1C(=O)O` [Example 142, 5-[6-Chloro-5-(1-methyl-1H-indazol-5-yl)-1H-benzoimidazol-2-yloxy]-2-methyl-benzoic acid] the Emax [1] was over 80%.

For `Cc1ccc(Oc2nc3cc(-c4ccc5c(c4)[nH]c4ccccc45)c(Cl)cc3[nH]2)cc1C(=O)O` [Example 147, 5-[5-(9H-Carbazol-2 yl)-6-chloro-1H-benzoimidazol-2-yloxy]-2-methyl-benzoic acid], the Emax [1] was over 80%.

Compound `O=C(O)Cc1cccc(Oc2nc3cc(C#Cc4ccccc4)c(Cl)cc3[nH]2)c1` [Example 22, [3-(6-Chloro-5-phenylethynyl-1H-benzoimidazol-2-yloxy)-phenyl]-acetic acid] has an Emax [1] of over 80%.

Compound `O=C(O)Cc1cc(Oc2nc3cc(-c4ccc(-c5ccccc5)cc4)c(Cl)cc3[nH]2)ccc1O` [Example 17, [5-(5-Biphenyl-4-yl-6-chloro-1H-benzoimidazol-2-yloxy)-2-hydroxy-phenyl]-acetic acid] has an Emax [1] of over 80%.

Work on `Cc1[nH]c2ccc(Oc3nc4cc(-c5ccc(-c6ccccc6)cc5)c(Cl)cc4[nH]3)cc2c1C(=O)O` [Example 5, 5-(5-Biphenyl-4-yl-6-chloro-1H-benzoimidazol-2-yloxy)-2-methyl-1H-indole-3-carboxylic acid] yielded an Emax [1] of over 80%.

With `COC(=O)c1ccc(Oc2nc3cc(-c4ccc(-c5ccccc5)cc4)c(Cl)cc3[nH]2)cc1O` [Example 31, 4-(5-Biphenyl-4-yl-6-chloro-1H-benzoimidazol-2-yloxy)-2-hydroxy-benzoic acid methyl ester] the Emax [1] was over 80%.

For `Cc1ccc(Oc2nc3cc(C#Cc4ccc(CCO)cc4)c(Cl)cc3[nH]2)cc1C(=O)O` [Example 69, 5-{6-chloro-5-[4-(2-hydroxy-ethyl)-phenylethynyl]-1H-benzoimidazol-2-yloxy}-2-methyl-benzoic acid], the Emax [1] was over 80%.

`Cc1ccc(Oc2nc3cc(-c4cccc5c4CCN5C(C)C)c(Cl)cc3[nH]2)cc1C(=O)O` [Example 324, 5-{[6-chloro-5-(1-isopropyl-2,3-dihydro-1H-indol-4-yl)-1H-benzimidazol-2-yl]oxy}-2-methylbenzoic acid] gave an Emax [1] of over 80%.

Work on `Cc1ccc(Oc2nc3cc(-c4ccc5c(c4)n(C)c(=O)n5C)c(Cl)cc3[nH]2)cc1C(=O)O` [Example 235, 5-(6-Chloro-1′,3′-dimethyl-2′-oxo-2′,3′-dihydro-1H,1′H-[5,5′]bibenzoimidazolyl-2-yloxy)-2-methyl-benzoic acid] yielded an Emax [1] of over 80%.

Work on `CC(=O)N1CCc2cc(-c3cc4nc(Oc5ccc(C)c(C(=O)O)c5)[nH]c4cc3Cl)ccc21` [Example 306, 5-[5-(1-Acetyl-2,3-dihydro-1H-indol-5-yl)-6-chloro-1H-benzoimidazol-2-yloxy]-2-methyl-benzoic acid] yielded an Emax [1] of over 80%.

`COc1ccc(-c2cc3nc(Oc4ccc(C)c(C(=O)O)c4)[nH]c3cc2Cl)cc1OC` [Example 260, 2-(3-carboxy-4-methylphenoxy)-6-chloro-5-(3,4-dimethoxyphenyl)-1H-3,1-benzimidazol-3-ium trifluoroacetate] gave an Emax [1] of over 80%.

In the case of `CC(=O)c1ccc2cc(-c3cc4nc(Oc5ccc(C)c(C(=O)O)c5)[nH]c4cc3Cl)ccc2c1` [Example 298, 5-[5-(6-Acetyl-naphthalen-2-yl)-6-chloro-1H-benzoimidazol-2-yloxy]-2-methyl-benzoic acid], the Emax [1] is reported as over 80%.

In the case of `O=C(O)C(O)c1ccc(Oc2nc3cc(-c4ccc(-c5ccccc5)cc4)c(Cl)cc3[nH]2)cc1` (stereo not drawn) [Example 20, [4-(5-Biphenyl-4-yl-6-chloro-1H-benzoimidazol-2-yloxy)-phenyl]-hydroxy-acetic acid], the Emax [1] is reported as over 80%.

For `Cc1ccc(Oc2nc3cc(-c4cccc(N(C)C)c4)c(Cl)cc3[nH]2)cc1C(=O)O` [Example 346, Ammonium 5-({6-chloro-5-[3-(dimethylamino)phen-yl]-1H-benzimidazol-2-yl}oxy)-2-methylbenzoate], the Emax [2] was over 80%.
